pIC50: −log10 of the molar value. Where two headings read alike, the source gives them in different places.
Experiments:
human orexin-1 receptor = human orexin-1 receptor (Homo sapiens (Human), UniProt O43613); assay: In vitro assay: intracellular calcium measurements (FLIPR), antagonistic activity; type: cell-based; conditions: CHO cells, 3 nM orexin-A, marked values are geometric means of n = 2-6, read-out: IC50 OX1
human orexin-2 receptor = human orexin-2 receptor (Homo sapiens (Human), UniProt O43614); assay: as above; type: cell-based; conditions: CHO cells, 3 nM orexin-A, marked values are geometric means of n = 2-6, read-out: IC50 OX2
Chain of human orexin-2 receptor (O43614 whole entry): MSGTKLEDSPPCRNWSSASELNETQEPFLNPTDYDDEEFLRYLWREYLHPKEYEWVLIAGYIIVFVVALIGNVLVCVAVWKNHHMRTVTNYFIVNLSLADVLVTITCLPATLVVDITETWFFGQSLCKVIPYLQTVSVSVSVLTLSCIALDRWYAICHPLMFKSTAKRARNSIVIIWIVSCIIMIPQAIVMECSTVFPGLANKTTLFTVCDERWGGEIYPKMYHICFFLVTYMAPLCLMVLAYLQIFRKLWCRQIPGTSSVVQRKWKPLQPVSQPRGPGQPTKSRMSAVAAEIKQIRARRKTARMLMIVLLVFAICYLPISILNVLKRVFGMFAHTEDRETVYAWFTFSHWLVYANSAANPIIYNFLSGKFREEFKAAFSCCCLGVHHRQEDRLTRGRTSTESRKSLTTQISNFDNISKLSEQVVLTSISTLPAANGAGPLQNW

[1] = compound incubation time of 10 min

Chain of human orexin-1 receptor (O43613 whole entry): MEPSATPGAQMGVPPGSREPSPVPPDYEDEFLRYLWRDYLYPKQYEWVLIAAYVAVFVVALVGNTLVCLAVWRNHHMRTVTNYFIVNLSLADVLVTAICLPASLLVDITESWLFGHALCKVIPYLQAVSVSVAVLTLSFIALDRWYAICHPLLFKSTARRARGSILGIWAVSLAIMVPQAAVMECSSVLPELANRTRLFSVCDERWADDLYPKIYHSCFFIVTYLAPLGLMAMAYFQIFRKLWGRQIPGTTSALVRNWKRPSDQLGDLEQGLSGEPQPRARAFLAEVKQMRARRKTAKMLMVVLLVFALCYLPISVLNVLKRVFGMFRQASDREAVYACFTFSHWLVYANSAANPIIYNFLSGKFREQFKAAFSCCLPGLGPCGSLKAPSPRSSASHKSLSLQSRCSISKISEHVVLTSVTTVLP

| SMILES | pIC50 (human orexin-1 receptor; [1]) | pIC50 (human orexin-2 receptor; [1]) | pIC50 (human orexin-1 receptor; compound incubation 120 min) | pIC50 (human orexin-2 receptor; compound incubation 120 min) |
| --- | --- | --- | --- | --- |
| COc1cccc(OC)c1C1CCCC(=O)N1Cc1ccc2c(c1)nnn2C (stereo not shown) [Example 243, 6-(2,6-dimethoxyphenyl)-1-((1-methyl-1H-benzo[d][1,2,3]triazol-5-yl)methyl)piperidin-2-one] | 5.00 | 6.51 | – | – |
| COc1cccc(OC)c1C1CCCC(=O)N1Cc1ccc(-c2ccccc2)cc1 (stereo not shown) [Example 244, 1-([1,1′-biphenyl]-4-ylmethyl)-6-(2,6-dimethoxyphenyl)piperidin-2-one] | 5.96 | 7.14 | – | – |
| COc1cccc(OC)c1C1CCCC(=O)N1Cc1ccc(N2CCCC2)cc1 (stereo not shown) [Example 245, 6-(2,6-dimethoxyphenyl)-1-(4-(pyrrolidin-1-yl)benzyl)piperidin-2-one] | 5.97 | 6.88 | – | – |
| COc1cccc(OC)c1C1CCCC(=O)N1Cc1ccc(OCC(F)(F)F)cc1 (stereo not shown) [Example 246, 6-(2,6-dimethoxyphenyl)-1-(4-(2,2,2-trifluoroethoxy)benzyl)piperidin-2-one] | 6.18 | 7.96 | – | – |
| COc1cccc(OC)c1C1CCCC(=O)N1Cc1cc2ccccc2n1C (stereo not shown) [Example 247, 6-(2,6-dimethoxyphenyl)-1-((1-methyl-1H-indol-2-yl)methyl)piperidin-2-one] | 6.88 | 7.39 | – | – |
| COc1cccc(OC)c1C1CCCC(=O)N1Cc1ccc(S(C)(=O)=O)cc1 (stereo not shown) [Example 248, 6-(2,6-dimethoxyphenyl)-1-(4-(methylsulfonyl)benzyl)piperidin-2-one] | 5.14 | 5.77 | – | – |
| COc1cccc(OC)c1C1CCCC(=O)N1Cc1ccc2oc(C)nc2c1 (stereo not shown) [Example 249, 6-(2,6-dimethoxyphenyl)-1-((2-methylbenzo[d]oxazol-5-yl)methyl)piperidin-2-one] | – | – | 6.48 | 6.65 |
| COc1cccc(OC)c1C1CCCC(=O)N1Cc1ccc2sccc2c1 (stereo not shown) [Example 250, 1-(benzo[b]thiophen-5-ylmethyl)-6-(2,6-dimethoxyphenyl)piperidin-2-one] | 6.69 | 6.85 | – | – |
| CCOc1ccccc1C1CCCC(=O)N1Cc1ccc(OC(F)(F)F)cc1 (stereo not shown) [Example 251, 6-(2-ethoxyphenyl)-1-(4-(trifluoromethoxy)benzyl)piperidin-2-one] | 5.39 | 6.37 | – | – |
| O=C1CCCC(c2ccccc2OC(F)(F)F)N1Cc1ccc(OC(F)(F)F)cc1 (stereo not shown) [Example 252, 1-(4-(trifluoromethoxy)benzyl)-6-(2-(trifluoromethoxy)phenyl)piperidin-2-one] | 5.03 | 5.57 | – | – |
| COc1cccc(OC)c1C1CC(F)(F)C(=O)N1Cc1ccc(OC(F)(F)F)cc1 (stereo not shown) [Example 256, 5-(2,6-dimethoxyphenyl)-3,3-difluoro-1-(4-(trifluoromethoxy)benzyl)pyrrolidin-2-one] | 6.71 | 6.88 | – | – |
| COc1cccc(OC)c1C1COCC(=O)N1Cc1ccc(OC(F)(F)F)cc1 (stereo not shown) [Example 266, 5-(2,6-dimethoxyphenyl)-4-(4-(trifluoromethoxy)benzyl)morpholin-3-one] | 6.39 | 7.07 | – | – |
| COc1cccc(OC)c1C1CNCC(=O)N1Cc1ccc(OC(F)(F)F)cc1 (stereo not shown) [Example 267, 6-(2,6-dimethoxyphenyl)-1-(4-(trifluoromethoxy)benzyl)piperazin-2-one] | 5.57 | 6.23 | – | – |
| COc1cccc(OC)c1C1CN(C)CC(=O)N1Cc1ccc(OC(F)(F)F)cc1 (stereo not shown) [Example 268, 6-(2,6-dimethoxyphenyl)-4-methyl-1-(4-(trifluoromethoxy)benzyl)piperazin-2-one] | 5.90 | 6.39 | – | – |
| COc1ncnc(OC)c1C1CCCC(=O)N1Cc1cccc(-c2csc(C)n2)c1 (stereo not shown) [Example 269, 6-(4,6-dimethoxypyrimidin-5-yl)-1-(3-(2-methylthiazol-4-yl)benzyl)piperidin-2-one] | – | – | 5.99 | 6.21 |
| COc1ncnc(OC)c1C1CCCC(=O)N1Cc1cccc(-c2ccccc2)c1 (stereo not shown) [Example 270, 1-([1,1′-biphenyl]-3-ylmethyl)-6-(4,6-dimethoxypyrimidin-5-yl)piperidin-2-one] | – | – | 6.25 | 6.39 |
| COc1ncnc(OC)c1C1CCCC(=O)N1Cc1csc(-c2ccccc2)n1 (stereo not shown) [Example 271, 6-(4,6-dimethoxypyrimidin-5-yl)-1-((2-phenylthiazol-4-yl)methyl)piperidin-2-one] | – | – | 5.24 | 6.59 |
| Cc1nc(-c2cccc(CN3C(=O)CCCC3c3cccc4c3OCCO4)c2)cs1 (stereo not shown) [Example 272, 6-(2,3-dihydrobenzo[b][1,4]dioxin-5-yl)-1-(3-(2-methylthiazol-4-yl)benzyl)piperidin-2-one] | – | – | 6.29 | 6.64 |
| O=C1CCCC(c2cccc3c2OCCO3)N1Cc1cccc(-c2ccccc2)c1 (stereo not shown) [Example 273, 1-([1,1′-biphenyl]-3-ylmethyl)-6-(2,3-dihydrobenzo[b][1,4]dioxin-5-yl)piperidin-2-one] | – | – | 6.10 | 6.53 |

| SMILES | pIC50 (human orexin-1 receptor; [1]) | pIC50 (human orexin-2 receptor; [1]) | pIC50 (human orexin-1 receptor; compound incubation 120 min) | pIC50 (human orexin-2 receptor; compound incubation 120 min) |
| --- | --- | --- | --- | --- |
| COc1cncc(OC)c1C1CCCCC(=O)N1Cc1cccc(-c2csc(C)n2)c1 (stereo not shown) [Example 274, 7-(3,5-dimethoxypyridin-4-yl)-1-(3-(2-methylthiazol-4-yl)benzyl)azepan-2-one] | – | – | 7.64 | 7.19 |
| COc1cncc(OC)c1C1CCCCC(=O)N1Cc1cccc(-c2ccccc2)c1 (stereo not shown) [Example 275, 1-([1,1′-biphenyl]-3-ylmethyl)-7-(3,5-dimethoxypyridin-4-yl)azepan-2-one] | – | – | 7.30 | 7.10 |
| COc1cncc(OC)c1C1CCCCC(=O)N1Cc1ccc2c(c1)c1ccccc1n2C (stereo not shown) [Example 276, 7-(3,5-dimethoxypyridin-4-yl)-1-((9-methyl-9H-carbazol-3-yl)methyl)azepan-2-one] | – | – | 6.46 | 6.65 |
| COc1cncc(OC)c1C1CCCCC(=O)N1Cc1csc(-c2ccccc2)n1 (stereo not shown) [Example 277, 7-(3,5-dimethoxypyridin-4-yl)-1-((2-phenylthiazol-4-yl)methyl)azepan-2-one] | – | – | 6.67 | 6.74 |
| COc1cccc(OC)c1C1CCCC(=O)N1Cc1csc(Oc2ccccc2)n1 (stereo not shown) [Example 278, 6-(2,6-dimethoxyphenyl)-1-((2-phenoxythiazol-4-yl)methyl)piperidin-2-one] | – | – | 6.60 | 6.76 |
| COc1ccc2nc(C)oc2c1C1CCCC(=O)N1Cc1ccc2ccccc2n1 (stereo not shown) [Example 279, 6-(6-methoxy-2-methylbenzo[d]oxazol-7-yl)-1-(quinolin-2-ylmethyl)piperidin-2-one] | – | – | 6.21 | 5.99 |
| COc1ccc2ncoc2c1C1CCCC(=O)N1Cc1ccc2ccccc2n1 (stereo not shown) [Example 280, 6-(6-methoxybenzo[d]oxazol-7-yl)-1-(quinolin-2-ylmethyl)piperidin-2-one] | – | – | 5.74 | 5.74 |
| COc1ccc(Cl)c(OC)c1C1CCCC(=O)N1Cc1cccc(-c2csc(C)n2)c1 (stereo not shown) [Example 281, 6-(3-chloro-2,6-dimethoxyphenyl)-1-(3-(2-methylthiazol-4-yl)benzyl)piperidin-2-one] | – | – | 7.38 | 6.94 |
| COc1cccc(OC)c1C1CCC(=O)N1Cc1ccc(Oc2nccs2)cc1 (stereo not shown) [Example 282, 5-(2,6-dimethoxyphenyl)-1-(4-(thiazol-2-yloxy)benzyl)pyrrolidin-2-one] | – | – | 6.86 | 6.67 |
| Cc1nc(-c2cccc(CN3C(=O)CCCC3c3ccccc3-c3ccccc3)c2)cs1 (stereo not shown) [Example 283, 6-([1,1′-biphenyl]-2-yl)-1-(3-(2-methylthiazol-4-yl)benzyl)piperidin-2-one] | – | – | 6.56 | 6.26 |
| O=C1CCCC(c2ccccc2-c2ccccc2)N1Cc1cccc(-c2ccccc2)c1 (stereo not shown) [Example 284, 6-([1,1′-biphenyl]-2-yl)-1-([1,1′-biphenyl]-3-ylmethyl)piperidin-2-one] | – | – | 5.84 | 6.14 |
| O=C1CCC(c2ccccc2-c2ccccc2)N1Cc1cccc(-c2ccccc2)c1 (stereo not shown) [Example 285, 5-([1,1′-biphenyl]-2-yl)-1-([1,1′-biphenyl]-3-ylmethyl)pyrrolidin-2-one] | – | – | 6.61 | 6.27 |
| Cc1nc(-c2cccc(CN3C(=O)CCC3c3ccccc3-c3ccccc3)c2)cs1 (stereo not shown) [Example 286, 5-([1,1′-biphenyl]-2-yl)-1-(3-(2-methylthiazol-4-yl)benzyl)pyrrolidin-2-one] | – | – | 6.98 | 6.34 |
| O=C1CCC(c2ccccc2-c2ccccc2)N1Cc1ccc(OC(F)(F)F)cc1 (stereo not shown) [Example 287, 5-([1,1′-biphenyl]-2-yl)-1-(4-(trifluoromethoxy)benzyl)pyrrolidin-2-one] | – | – | 6.04 | 6.23 |
| O=C1CCC(c2ccccc2-c2ccccc2)N1Cc1csc(-c2ccccc2)n1 (stereo not shown) [Example 288, 5-([1,1′-biphenyl]-2-yl)-1-((2-phenylthiazol-4-yl)methyl)pyrrolidin-2-one] | – | – | 6.08 | 5.86 |
| CC1CC(c2ccccc2-c2ccccc2)N(Cc2cccc(-c3ccccc3)c2)C1=O (stereo not shown) [Example 289, 5-([1,1′-biphenyl]-2-yl)-1-([1,1′-biphenyl]-3-ylmethyl)-3-methylpyrrolidin-2-one] | – | – | 6.38 | 6.22 |
| Cc1nc(-c2cccc(CN3C(=O)C(C)CC3c3ccccc3-c3ccccc3)c2)cs1 (stereo not shown) [Example 290, 5-([1,1′-biphenyl]-2-yl)-3-methyl-1-(3-(2-methylthiazol-4-yl)benzyl)pyrrolidin-2-one] | – | – | 6.99 | 6.34 |
| CC1CC(c2ccccc2-c2ccccc2)N(Cc2ccc(OC(F)(F)F)cc2)C1=O (stereo not shown) [Example 291, 5-([1,1′-biphenyl]-2-yl)-3-methyl-1-(4-(trifluoromethoxy)benzyl)pyrrolidin-2-one] | – | – | 5.69 | 6.34 |
| COc1cccc(OC)c1C1CCC(=O)N1Cc1ccc(Oc2nc(C)cs2)cc1 (stereo not shown) [Example 292, 5-(2,6-dimethoxyphenyl)-1-(4-((4-methylthiazol-2-yl)oxy)benzyl)pyrrolidin-2-one] | – | – | 6.67 | 6.90 |
